Assay: Stability in mouse plasma at storage and use conditions
Format: physicochemical
Description: The chemical stability of MO-OH-Nap and IS in plasma samples were assessed at LQC, MQC, and HQC concentrations, n = 3, under the following storage conditions: bench-top storage (up to 6 h at room temperature, 21 ± 0.5 °C), three freeze–thaw cycles (−80 ± 0.5 °C to room temperature for 30 min, back to −80 ± 0.5 °C then stored for 24 h, the cycle was repeated twice more), long-term storage (12 months at −80 ± 0.5 °C), and 24 h auto-sampler stability of extracted samples (at 4 ± 0.5 °C).

[1] = autosampler 4 °C, up to 24 h, extracted samples, HQC 375 ng/mL
[2] = autosampler 4 °C, up to 24 h, extracted samples, LQC 3 ng/mL
[3] = autosampler 4 °C, up to 24 h, extracted samples, MQC 200 ng/mL
[4] = bench-top 21 °C, up to 6 h, HQC 375 ng/mL
[5] = bench-top 21 °C, up to 6 h, LQC 3 ng/mL
[6] = bench-top 21 °C, up to 6 h, MQC 200 ng/mL
[7] = freeze-thaw −80 °C, 3 cycles, HQC 375 ng/mL
[8] = freeze-thaw −80 °C, 3 cycles, LQC 3 ng/mL
[9] = freeze-thaw −80 °C, 3 cycles, MQC 200 ng/mL
[10] = long-term −80 °C, 12 months, HQC 375 ng/mL
[11] = long-term −80 °C, 12 months, LQC 3 ng/mL
[12] = long-term −80 °C, 12 months, MQC 200 ng/mL

With `O=c1c(O)ccccc1-c1ccc2ccccc2c1` [MO-OH-Nap, MO-OH-Nap tropolone] the “% Accuracy” value [1] was 90.7 ± 5.3%, the “Measured Mean Conc.” value [1] was 340.2 ± 20.1 ng/mL and the “% Accuracy” value [2] was 101.9 ± 5.8%. The “Measured Mean Conc.” value [2] was 3.1 ± 0.2 ng/mL, the “% Accuracy” value [3] was 90.1 ± 0.6% and the “Measured Mean Conc.” value [3] was 180.2 ± 1.10 ng/mL. The “% Accuracy” value [4] was 101.5 ± 5.6%, the “Measured Mean Conc.” value [4] was 380.5 ± 20.9 ng/mL and the “% Accuracy” value [5] was 107.8 ± 14.8%. The “Measured Mean Conc.” value [5] was 3.2 ± 0.5 ng/mL, the “% Accuracy” value [6] was 95.8 ± 9.1% and the “Measured Mean Conc.” value [6] was 191.6 ± 18.1 ng/mL. The “% Accuracy” value [7] was 88.6 ± 4.7%, the “Measured Mean Conc.” value [7] was 332.2 ± 17.6 ng/mL and the “% Accuracy” value [8] was 100.5 ± 13.3%. The “Measured Mean Conc.” value [8] was 3.0 ± 0.4 ng/mL, the “% Accuracy” value [9] was 84.0 ± 0.9% and the “Measured Mean Conc.” value [9] was 167.9 ± 1.8 ng/mL. For the same molecule, the “% Accuracy” value [10] was 92.7 ± 0.4%, the “Measured Mean Conc.” value [10] was 347.4 ± 1.5 ng/mL and the “% Accuracy” value [11] was 95.6 ± 2.4%. The “Measured Mean Conc.” value [11] was 2.9 ± 0.1 ng/mL, the “% Accuracy” value [12] was 99.8 ± 0.6% and the “Measured Mean Conc.” value [12] was 199.5 ± 1.3 ng/mL.
